In paper PMC10198811 (The Pediatric infectious disease journal, 2023):
In brackets after ≈: the same amount, converted by molar mass. Like-named read-outs stand apart in the source and are kept apart here. *1 amine or outer side, *2 acyl side, *3 side chain or, on linkers, in order; H or OH if unused. Where a SMILES comes first, the peptide text is derived from it. Bridges are numbered along the chain shown (N, C = ends). [ ]: non-standard residue; d: D form. The star is where a group is joined. hTyr(3S-OH,4S-OH,3'-OSO3H) = N[C@H](C(=O)O)[C@H](O)[C@@H](O)c1ccc(O)c(OS(=O)(=O)O)c1; Orn(4R-OH,5R-OH) = O=C([C@H](C[C@@H](O)[C@@H](O)N[*:3])N[*:1])[*:2]; Pro(3S-OH,4S-Me) = C[C@H]1CN[C@H](C(=O)O)[C@H]1O; X1 = CCCCCOc1ccc(-c2cc(-c3ccc(C(=O)*)cc3)no2)cc1; Gln(3R-OH) = NC(=O)C[C@@H](O)[C@H](N)C(=O)O; Hyp = O=C(O)[C@@H]1C[C@@H](O)CN1

How the values were obtained:
[1] = tested on: CYP2C19; details: compared to ilaprazole and pantoprazole; cited from earlier work
[2] = tested on: F. solani isolate; experiment: Antifungal susceptibility testing; format: cell-based, F. solani complex; details: Fusarium solani
[3] = cited from earlier work
[4] = tested on: F. solani complex
[5] = tested on: Fusarium spp.; details: cited from earlier work
[6] = tested on: F. solani isolate; experiment: In vitro synergy testing of the voriconazole and micafungin combination; format: cell-based, F. solani complex; details: tested at University of Texas Health Science Center in San Antonio
[7] = cited from earlier work; remark: listed apart in the source

COc1ccc2nc([S@@+]([O-])Cc3ncc(C)c(OC)c3C)[nH]c2c1 [esomeprazole]
CYP2C19 inhibitory effect [1]: more potent inhibitory effects

C[C@@H](c1nc(-c2ccc(C#N)cc2)cs1)[C@](O)(Cn1cncn1)c1cc(F)ccc1F [isavuconazole]
MIC [2]: > 16 µg/mL

C[C@@H](c1ncncc1F)[C@](O)(Cn1cncn1)c1ccc(F)cc1F [voriconazole]
Increase of voriconazole AUC ([3]; healthy subjects, with cimetidine 400 mg PO q12h): 23% | Increase of voriconazole AUC ([3]; healthy volunteers, with omeprazole 40 mg PO q24h): 40% | Repeat imaging of metastatic sites of proven or suspected infection ([4]; 6 months after initiation of voriconazole therapy): significant interval improvement or resolution of all metastatic sites | Voriconazole-related toxicity (e.g., hepatotoxicity, neurotoxicity) ([4]; ~10.7 mg/kg/dose PO q8h for several months, troughs 4 to 6 mcg/mL): without any evidence of voriconazole-related toxicity | MIC [2]: 4 µg/mL (≈ 11.5 µM) | MIC50 [5]: 8 µg/mL (≈ 22.9 µM)

C[C@@H]1[C@H](O)[C@@H](C)/C=C/C=C/C=C/C=C/C=C/C=C/C=C/[C@H](O[C@@H]2O[C@H](C)[C@@H](O)[C@H](N)[C@@H]2O)C[C@@H]2O[C@](O)(C[C@@H](O)C[C@@H](O)[C@H](O)CC[C@@H](O)C[C@@H](O)CC(=O)O[C@H]1C)C[C@H](O)[C@H]2C(=O)O [amphotericin B]
MIC [2]: 8 µg/mL (≈ 8.66 µM)

CCCCCOc1ccc(-c2cc(-c3ccc(C(=O)N[C@H]4C[C@@H](O)[C@@H](O)NC(=O)[C@@H]5[C@@H](O)[C@@H](C)CN5C(=O)[C@H]([C@H](O)CC(N)=O)NC(=O)[C@H]([C@H](O)[C@@H](O)c5ccc(O)c(OS(=O)(=O)O)c5)NC(=O)[C@@H]5C[C@@H](O)CN5C(=O)[C@H]([C@@H](C)O)NC4=O)cc3)no2)cc1 [micafungin] (X1-[Orn(4R-OH,5R-OH)]T[Hyp][hTyr(3S-OH,4S-OH,3'-OSO3H)][Gln(3R-OH)][Pro(3S-OH,4S-Me)]; lactam 1-C)
Synergy of combination [6]: did not reveal synergy

Cc1c(OCC(F)(F)F)ccnc1C[S+]([O-])c1nc2ccccc2[nH]1 (stereo not shown) [lansoprazole]
CYP2C19 inhibitory effect [1]: more potent inhibitory effects

CN/C(=N/CCSCc1nc[nH]c1C)NC#N [cimetidine]
Toxicity [7]: central nervous system effects and anti-androgenic side effects

CC[C@@H]([C@H](C)O)n1ncn(-c2ccc(N3CCN(c4ccc(OC[C@@H]5CO[C@@](Cn6cncn6)(c6ccc(F)cc6F)C5)cc4)CC3)cc2)c1=O [posaconazole]
MIC [2]: > 16 µg/mL

COc1ccc2[nH]c([S+]([O-])Cc3ncc(C)c(OC)c3C)nc2c1 (stereo not shown) [omeprazole]
CYP2C19 inhibitory effect [1]: more potent inhibitory effects | Omeprazole AUC with voriconazole compared to absence of co-administration ([3]; voriconazole co-administration): 4 times higher | Omeprazole Cmax with voriconazole compared to absence of co-administration ([3]; voriconazole co-administration): 2 times higher
